# Read-outs that look alike come from different tables or passages of the source.
# Key:
# [1] = Singlet oxygen quantum yield by chemical trapping with ADPA; assay type: physicochemical; conditions: D2O (470 nm); ADPA as chemical probe, Eosin Y as reference
# Method: Chemical trapping experiments: Quantum yields of singlet oxygen produced by 1a-c was evaluated by monitoring the UV/Visible absorption change in an Agilent 8453 Diode-Array spectrophotometer of 3,3'-anthracene-9,10-diyldipropanoic acid (ADPA) which is a well-known singlet oxygen trap. […] A solution of 1a-c in deuterated water (A473nm = 0.06) was prepared and an aliquot of ADPA in deuterated water was added to reach A378nm = 0.74. The photoabsorption spectral change of ADPA solution with photosensitizers 1a-c was monitored following the decrease of the band at 382 nm. Plots of Ln(A/A0) vs. time (s) give linear graphs for which the slope is the experimental kinetic rate constant (k, s^-1) (Ao is the initial absorption intensity and A is the absorption intensity at the time t). From comparison of experimental rate constants between phenalenone derivatives 1a-c and two selected actinometers (Eosin Y and Riboflavin, see supporting information for results using Riboflavin) using optically-matched solutions, singlet oxygen quantum yields of the photosensitizers ΦΔ can be determined from the following equation: φΔ = (k)/(kref) × φΔ,ref [formula]
# [2] = test system: Pseudomonas aeruginosa CIP76.110; test: Antibacterial photodynamic inactivation, MIC/MBC by micromethod in 96-well plates; assay type: cell-based; conditions: for MBC / MIC: Pseudomonas aeruginosa
# Method: (§1) To evaluate the biological activity of the molecules, the minimal inhibitory concentration (MIC) and the minimal bactericidal concentration (MBC) were determined on bacterial cultures (Staphylococcus aureus CIP76.25, Pseudomonas aeruginosa CIP76.110) by micromethod in 96-well plates. Briefly, bacterial cultures in log-phase were diluted in sterile PBS 1X at a concentration equivalent to 4×10^6 UFC/mL. Serial dilutions of different molecules were performed in PBS 1X to a final concentration from 200 to 1.5 µM and 50 µl of each dilution were added in the microplate wells. Then, 50 µl of diluted bacterial culture were added in each well. Two different plates for each strain were prepared: one plate for the dark condition and a second plate for light irradiation.
# (§2) Two controls were included; a bacterial growth control with no molecule added and a negative control with PBS without bacterial inoculum and no molecules.
# (§3) The microplate was incubated at 37°C for 1h in dark condition. After that, bacteria were irradiated with LED white light (total fluence: 25J/cm^2). During the time of irradiation, the second plate was maintained in the dark. Then, 100 µL of 2-fold concentrated TS broth were added in each well and the microplate was incubated at 37°C for 24h. The MIC values were determined as the lowest concentration without observed bacterial growth. For determination of the MBC, 100 µl from wells where no evident growth was observed were diluted in physiological water (NaCl 0.9%). All 10-fold serial dilutions were spread on TS agar plates using an automatic plater (easySPIRAL®, Interscience, Saint-Nom La Bretêche, France). After incubation at 37 °C for 24 h, colonies were counted to determine total CFU per mL (CFU/mL). The MBC corresponds to the concentration of the active compound for which 99.99% of the bacteria have been killed (i.e. 4 log reduction compared to the untreated control). Three independent experiments were performed with each strain.
# [3] = test system: Staphylococcus aureus CIP76.25; test: as above; assay type: cell-based
# Method: as §1, §2, §3
# [4] = UV/Visible and fluorescence spectroscopy, fluorescence lifetime (TCSPC); assay type: physicochemical; conditions: for ΦF (fluorescence quantum yield): 6-ethoxyphenalenone as actinometer; for ε: at the longest-wavelength absorption maximum; for λmax(em): excited at 400 nm
# Method: UV/Visible and fluorescence spectroscopy: UV-Vis spectra were recorded on an Agilent 8453 Diode-Array spectrophotometer in the range of 250-700 nm. Emission spectra were measured in an ISS PC1 spectrofluorometer at room temperature. Fluorescence quantum yields were determined using equation (1) and 6-ethoxy-phenalenone in methanol as reference. ΦF,sample = ΦF,reference (Areference)/(Asample)(Isample)/(Ireference)(((ηsample)/(ηreference)))^2 [formula] ΦF is the fluorescence quantum yields. A: is the absorbance in the wavelength of excitation, I correspond to area of the emission spectra and η is the refractive index of the solvent. The excitation wavelength was 400 nm for all steady state fluorescence experiments.
# Luminescence lifetime measurements were carried out using a PicoQuant FluoTime 200 fluorescence lifetime spectrometer with a multichannel scaler (PicoQuant's Timeharp 250) with the time correlated single photon counting (TCSPC) method. As excitation resource laser 405 nm was employed.
# [5] = Singlet oxygen quantum yield by 1O2 phosphorescence at 1270 nm; assay type: physicochemical; conditions: phosphorescence method
# Method: Singlet oxygen quantum yield measurements: Lifetime decays of singlet oxygen, O2(^1Δg), were acquired with a FluoTime 200 equipped with multichannel scaler Nanoharp 200. […] For the detection at 1270 nm a NIR PMT H10330A (Hamamatsu) was employed. The O2(^1Δg) quantum yields (ΦΔ) were determined by comparing the intensity at zero time of the 1270 nm signals to those of optically-matched solutions of SAPYR or Eosin Y as references.
# [6] = Photochemical stability under blue light monitored by 1H NMR; assay type: physicochemical; conditions: D2O, irradiation at 470 nm (3.5 mW.cm^-2) for 24h, under oxygen or Argon
# Method: Photochemical stability: In an NMR tube, a solution of dyes 1a-c or SAPYR in D2O ([C] = 17.5 mmol/L) was irradiated at 470 nm (3.5 mW.cm^-2) under oxygen or Argon atmosphere (the gas was bublled solution was oxygenated or degassed by bubbling through the solution for 5 minutes and put under gas atmosphere). 1H NMR spectra were recorded after 24h irradiation time for each sample.
# [7] = actinometer value of SAPYR, excitation at 355 nm, ref [27]; cited from earlier work
# [8] = CIP76, light or radiation study, P.a, light (L), LED white light, total fluence 25 J/cm^2, read-out: MBC
# [9] = CIP76, light or radiation study, P.a, light (L), LED white light, total fluence 25 J/cm^2, read-out: MIC
# [10] = CIP76, P.a, dark (D), read-out: MBC
# [11] = CIP76, P.a, dark (D), read-out: MIC
# [12] = CIP76, S.a, dark (D), read-out: MBC
# [13] = CIP76, S.a, dark (D), read-out: MIC
# [14] = CIP76, light or radiation study, S.a, light (L), LED white light, total fluence 25 J/cm^2, read-out: MBC
# [15] = CIP76, light or radiation study, S.a, light (L), LED white light, total fluence 25 J/cm^2, read-out: MIC
# [16] = D2O (470 nm), Eosin Y as actinometer
# [17] = D2O, SAPYR as actinometer, excitation at 355 nm
# [18] = DMSO, SAPYR as actinometer, excitation at 355 nm
# [19] = MeOH, SAPYR as actinometer, excitation at 355 nm
# [20] = CIP76, light or radiation study
Compound,ΦΔ [1],"MBC [2, 8]","MIC [2, 9]","MBC [2, 10]","MIC [2, 11]","MBC [3, 12]","MIC [3, 13]","MBC [3, 14]","MIC [3, 15]",TF (singlet lifetime) ([4]; DMSO),Δλ (Stokes shift) ([4]; DMSO),λabs ([4]; DMSO),ΦF (fluorescence quantum yield) ([4]; DMSO),ε ([4]; DMSO),λmax(em) ([4]; DMSO),TF (singlet lifetime) ([4]; H2O),Δλ (Stokes shift) ([4]; H2O),λabs ([4]; H2O),ΦF (fluorescence quantum yield) ([4]; H2O),ε ([4]; H2O),further results
"COc1ccc2c3c(cc(C[N+](C)(C)Cc4ccccc4)c(-c4ccccc4)c13)C(=O)C=C2.[Cl-] [1a, N-benzyl-1-(6-methoxy-1-oxo-7-phenyl-1H-phenalen-8-yl)-N,N-dimethylmethanaminium chloride]",0.09,> 200 µM,> 200 µM,> 200 µM,> 200 µM,> 200 µM,167 µM,133 µM,50 µM,6.04 ns,92 nm,441 nm,0.069,11426 M⁻¹ cm⁻¹,533 nm,7.65 ns,90 nm,459 nm,0.241,9239 M⁻¹ cm⁻¹,"λmax(em) ([4]; H2O): 549 nm; TF (singlet lifetime) ([4]; MeOH): 8.15 ns; Δλ (Stokes shift) ([4]; MeOH): 95 nm; λabs ([4]; MeOH): 447 nm; ΦF (fluorescence quantum yield) ([4]; MeOH): 0.221; ε ([4]; MeOH): 9363 M⁻¹ cm⁻¹; λmax(em) ([4]; MeOH): 542 nm; ΦΔ [5, 16]: 0.12; ΦΔ [5, 17]: 0.06; ΦΔ [5, 18]: 0.79; ΦΔ [5, 19]: 0.10"
"COc1ccc2c3c(cc(C[n+]4ccccc4)c(-c4ccccc4)c13)C(=O)C=C2.[Cl-] [1b, 1-((6-methoxy-1-oxo-7-phenyl-1H-phenalen-8-yl)methyl)pyridin-1-ium chloride]",0.15,> 200 µM,> 200 µM,> 200 µM,> 200 µM,> 200 µM,> 200 µM,67 µM,50 µM,6.24 ns,91 nm,444 nm,0.067,10472 M⁻¹ cm⁻¹,535 nm,7.15 ns,88 nm,463 nm,0.192,9259 M⁻¹ cm⁻¹,"λmax(em) ([4]; H2O): 551 nm; TF (singlet lifetime) ([4]; MeOH): 7.65 ns; Δλ (Stokes shift) ([4]; MeOH): 95 nm; λabs ([4]; MeOH): 447 nm; ΦF (fluorescence quantum yield) ([4]; MeOH): 0.209; ε ([4]; MeOH): 9344 M⁻¹ cm⁻¹; λmax(em) ([4]; MeOH): 542 nm; ΦΔ [5, 16]: 0.11; ΦΔ [5, 17]: 0.06; ΦΔ [5, 18]: 0.63; ΦΔ [5, 19]: 0.12"
"COc1ccc2c3c(cc(CN(CCO)CCO)c(-c4ccccc4)c13)C(=O)C=C2.Cl [1c, 8-((bis(2-hydroxyethyl)amino)methyl)-6-methoxy-7-phenyl-1H-phenalen-1-one chloride]",0.08,41.7 µM,33 µM,> 200 µM,> 200 µM,> 200 µM,> 200 µM,41.7 µM,41.7 µM,5.38 ns,92 nm,441 nm,0.071,11984 M⁻¹ cm⁻¹,533 nm,7.39 ns,92 nm,459 nm,0.217,10053 M⁻¹ cm⁻¹,"λmax(em) ([4]; H2O): 551 nm; TF (singlet lifetime) ([4]; MeOH): 8.24 ns; Δλ (Stokes shift) ([4]; MeOH): 96 nm; λabs ([4]; MeOH): 446 nm; ΦF (fluorescence quantum yield) ([4]; MeOH): 0.233; ε ([4]; MeOH): 12256 M⁻¹ cm⁻¹; λmax(em) ([4]; MeOH): 542 nm; ΦΔ [5, 16]: 0.09; ΦΔ [5, 17]: 0.06; ΦΔ [5, 18]: 0.91; ΦΔ [5, 19]: 0.15"
"O=C1C(C[n+]2ccccc2)=Cc2cccc3cccc1c23 [SAPYR, reference compound]",,,,,,,,,,,,,,,,,,,,,"photochemical stability [6]: complete decomposition; ΦΔ [7]: 1.02; MBC [2, 20]: > 200 µM; MIC [2, 20]: > 200 µM; photodynamic effects ([2]; illumination under white light): did not exhibit any photodynamic effects; MBC [3, 20]: 167 µM; MIC [3, 20]: 83.3 µM"

# Reference: patent publication EP4299131A1, “HYDROPHILIC PHENALENONES AND THEIR USE IN ANTIMICROBIAL PHOTODYNAMIC THERAPY” (Centre national de la recherche scientifique, priority 2022, dated 2024)
